From patent US9394299B2, “Rilyazine derivatives and compositions for the treatment of cancer” (Warner Babcock Institute for Green Chemistry, LLC, priority 2013, dated 2016)

What was measured:
SK-MEL-5 (Melanoma) = assay: NCI single point 10 μM, SK-MEL-5; type: cell-based, human; details: 10^−5 M
Procedure: (§1) The screening is a two-stage process, beginning with the evaluation of all compounds against 60 cell lines at a single dose of 10^−5 M.
(§2) The human tumor cell lines of the cancer screening panel are grown in RPMI 1640 medium containing 5% fetal bovine serum and 2 mM L-glutamine. Cells are inoculated into 96 well microtiter plates in 100 μL at plating densities ranging from 5,000 to 40,000 cells/well depending on the doubling time of individual cell lines. After cell inoculation, the microtiter plates are incubated at 37° C., 5% CO2, 95% air and 100% relative humidity for 24 h prior to addition of experimental drugs. […]
(§3) Following drug addition, the plates are incubated for an additional 48 h at 37° C., 5% CO2, 95% air, and 100% relative humidity. […] Bound stain is subsequently solubilized with 10 mM trizma base, and the absorbance is read on an automated plate reader at a wavelength of 515 nm. […]
(§4) For the 1-dose 60 cell testing, the Growth Percent is calculated for each cell line/drug combination from the absorbance measurement for the no-drug control (C), the absorbance at time zero (Tz) and the absorbance measurement after incubation of the cells in the presence of drug (Ti): Growth Percent=[(Ti−Tz)/(C−Tz)]×100 for cell line/drug combinations for which Ti≧Tz. […]

[1] = tested on: NCI-H552 (non-small cell lung cancer); assay: NCI single point 10 μM, NCI-H552; type: cell-based, human; details: 10^−5 M
Procedure: as §1, §2, §3, §4

[2] = tested on: NCI-H322M (non-small cell lung cancer); assay: NCI five point dosing, NCI-H322M; type: cell-based, human
Procedure: RL-4 was evaluated against the 60 cell panel at five concentration levels, 10^−8 M, 10^−7 M, 10^−6 M, 10^−5 M and 10^−4 M.
as §2, §3
The percentage growth is calculated at each of the five drug concentrations levels using the seven absorbance measurements, namely absorbance at time zero (Tz), absorbance of control after incubation (C), and absorbance of test sample after incubation in the presence of drug at each of the five concentration levels (Ti). The Growth Percent is calculated as it was for the 1 dose assay: Growth Percent=[(Ti−Tz)/(C−Tz)]×100 for cell line/drug combinations for which Ti≧Tz. […]

Colo-205 cells = assay: MTT cell proliferation assay, Colo-205; type: cell-based; details: 72 h-exposure, 30-0.041 μM
Procedure: In vitro characterizing of the effects of rilyazine analogs on cell proliferation and apoptosis in the paired epithelial/mesenchymal lines (Colo205/Colo-R, DLD/DLD-SNAIL and MCF7/MCF7-WISP) was performed in an independent laboratory.
The Dose Preparation is based on a reconstitute in DMSO. The Concentration of the stock solution is 100 mM. Storage of the stock solution is under −80° C.
Working drug solution of rilyazine analogs: A stock solution of 100 mM OTX015 in DMSO was prepared and stored at −80° C. For growth inhibition studies, dilution series were prepared by (1) diluting stock solution into DMSO, then (2) diluting 1:300 in culture medium supplemented with 10% FBS giving a final concentration in 0.3% DMSO in the 96-well plates.
Cell lines. Cells lines were maintained in RPMI 1640 (PAA Laboratories, France) supplemented with 10% fetal bovine serum (FBS; PAA Laboratories, France), 2 mM glutamine (PAA Laboratories, France), 100 units/ml penicillin and 100 μg/ml streptomycin (PAA Laboratories, France). Cells were free of Mycoplasma.
Proliferation assays. Cell proliferation was determined using the MTT assay (3-[4,5-dimethylthiazol-2-yl]-2,5-diphenyltetrazolium bromide; Sigma-Aldrich, St. Louis, Mo.). […] After incubation, the supernatant was discarded, the cell pellet was resuspended in 0.1 mL DMSO, and the absorbance was measured at 560 nm using a microplate reader (Thermo, France). […]

`S=c1c2ncccc2c(-c2ccccn2)nn1C1CCCCC1` [RL-4, 7-cyclohexyl-5-(pyridin-2-yl)pyrido[2,3-d]pyridazine-8(7H)-thione] was tested, and the “Growth Percent” value (SK-MEL-5 (Melanoma)) was 7.87%, the “Growth Percent” value [1] was 91.26% and the Growth Percent ([2]; 10^−4 M dose) was 60%. For the same compound, the GI50 ([2]; Homo sapiens, five point dosing) was > 100 µM and the “anti-proliferative effects (in words)” value (Colo-205 cells) was “dose-dependent anti-proliferative effects”.
